Measurements: ChEMBL document CHEMBL4831529, “Systematic Development of Peptide Inhibitors Targeting the CXCL12/HMGB1 Interaction” (J Med Chem, 2021)
Values belong to the compound of their own block, whether it stands above or below them. Active and inactive are the calls of the source. No cut-off for these calls is given here.

What was measured:
[1] = target: C-X-C chemokine receptor type 4 (Homo sapiens) (UniProt P61073); experiment: Inhibition of human CXCR4-mediated chemotaxis expressed in mouse 300-19 Pre-B cells assessed as reduction in CXCL12/HMGB1-induced cell migration at 200 uM; format: functional, cell-based
Sequence of C-X-C chemokine receptor type 4 (Homo sapiens) (P61073 whole entry): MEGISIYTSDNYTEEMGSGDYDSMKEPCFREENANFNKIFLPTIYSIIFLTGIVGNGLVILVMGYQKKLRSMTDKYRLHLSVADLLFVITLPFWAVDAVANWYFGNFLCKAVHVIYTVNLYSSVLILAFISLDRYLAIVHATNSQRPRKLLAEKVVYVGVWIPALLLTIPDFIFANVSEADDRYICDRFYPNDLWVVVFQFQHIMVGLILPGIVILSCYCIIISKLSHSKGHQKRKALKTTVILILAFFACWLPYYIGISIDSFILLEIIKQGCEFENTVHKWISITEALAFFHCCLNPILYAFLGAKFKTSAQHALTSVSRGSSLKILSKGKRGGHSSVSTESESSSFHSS

[2] = target: T1, High mobility group protein B1 (Homo sapiens, UniProt P09429); experiment: Binding affinity to full-length N-terminal 6His-tagged HMGB1 (unknown origin) by NMR spectra
T1 sequence (P09429 whole entry): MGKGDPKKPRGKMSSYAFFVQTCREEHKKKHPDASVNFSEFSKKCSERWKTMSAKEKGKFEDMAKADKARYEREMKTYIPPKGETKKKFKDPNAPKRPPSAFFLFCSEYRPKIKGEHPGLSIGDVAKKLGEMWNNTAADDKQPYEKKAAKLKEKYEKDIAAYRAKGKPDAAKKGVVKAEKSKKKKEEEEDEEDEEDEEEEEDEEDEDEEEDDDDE

[3] = target: T1, High mobility group protein B1; experiment: Binding affinity to 6His-tagged HMGB1 (unknown origin) incubated for 15 mins by MST analysis
[4] = target: C-X-C chemokine receptor type 4 (Homo sapiens) (UniProt P61073); experiment: Inhibition of human CXCR4-mediated chemotaxis expressed in mouse 300-19 Pre-B cells assessed as reduction in CXCL12/HMGB1-induced cell migration at 100 uM; format: functional, cell-based
[5] = target: C-X-C chemokine receptor type 4 (Homo sapiens) (UniProt P61073); experiment: Inhibition of human CXCR4-mediated chemotaxis expressed in mouse 300-19 Pre-B cells assessed as reduction in CXCL12-induced cell migration at 100 uM; format: functional, cell-based
[6] = target: C-X-C chemokine receptor type 4 (Homo sapiens) (UniProt P61073); experiment: Inhibition of human CXCR4-mediated chemotaxis expressed in human monocytes assessed as reduction in CXCL12/HMGB1-induced cell migration at 100 uM; format: functional, cell-based; conditions: Monocyte
[7] = target: C-X-C chemokine receptor type 4 (Homo sapiens) (UniProt P61073); experiment: Inhibition of human CXCR4-mediated chemotaxis expressed in human monocytes assessed as reduction in CXCL12-induced cell migration at 100 uM; format: functional, cell-based; conditions: Monocyte
[8] = target: C-X-C chemokine receptor type 4 (Homo sapiens) (UniProt P61073); experiment: Inhibition of human CXCR4-mediated chemotaxis expressed in mouse 300-19 Pre-B cells assessed as reduction in CXCL12/HMGB1-induced cell migration at 50 uM; format: functional, cell-based
[9] = target: Toll-like receptor 4 (Homo sapiens) (UniProt O00206); experiment: Inhibition of HMGB1 binding to TLR4 in human monocytes assessed as reduction in HMGB1-induced IL-6 production at 100 uM by cytometric bead array; format: cell-based; conditions: Monocyte
Sequence of Toll-like receptor 4 (Homo sapiens) (O00206 whole entry): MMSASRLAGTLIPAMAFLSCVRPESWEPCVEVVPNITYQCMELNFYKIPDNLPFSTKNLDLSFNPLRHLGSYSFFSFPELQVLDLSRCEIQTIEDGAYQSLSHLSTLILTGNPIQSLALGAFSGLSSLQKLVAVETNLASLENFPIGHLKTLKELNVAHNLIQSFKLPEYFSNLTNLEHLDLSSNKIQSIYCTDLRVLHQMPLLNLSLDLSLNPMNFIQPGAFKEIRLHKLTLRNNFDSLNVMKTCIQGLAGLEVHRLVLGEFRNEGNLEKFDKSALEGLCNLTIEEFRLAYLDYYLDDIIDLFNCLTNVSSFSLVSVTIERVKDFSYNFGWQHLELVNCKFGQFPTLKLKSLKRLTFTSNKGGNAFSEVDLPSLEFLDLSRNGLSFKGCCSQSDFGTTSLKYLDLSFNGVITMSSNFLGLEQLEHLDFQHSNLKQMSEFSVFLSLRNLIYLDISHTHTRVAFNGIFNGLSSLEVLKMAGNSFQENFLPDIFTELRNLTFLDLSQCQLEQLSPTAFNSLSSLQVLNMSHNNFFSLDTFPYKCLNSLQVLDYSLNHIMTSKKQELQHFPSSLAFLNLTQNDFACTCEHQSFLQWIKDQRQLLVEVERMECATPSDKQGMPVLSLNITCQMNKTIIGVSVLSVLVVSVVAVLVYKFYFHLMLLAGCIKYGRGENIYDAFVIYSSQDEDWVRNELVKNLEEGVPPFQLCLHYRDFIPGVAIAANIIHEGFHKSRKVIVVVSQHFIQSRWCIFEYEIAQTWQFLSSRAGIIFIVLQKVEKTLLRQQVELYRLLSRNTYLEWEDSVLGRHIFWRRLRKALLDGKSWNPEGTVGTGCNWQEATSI

[10] = target: Toll-like receptor 4 (Homo sapiens) (UniProt O00206); experiment: Inhibition of HMGB1 binding to TLR4 in human monocytes assessed as reduction in HMGB1-induced TNF production at 100 uM by cytometric bead array; format: cell-based; conditions: Monocyte

inhibition [1]: Active
Compound: CC1(C)[C@@H](O[C@H]2O[C@H](C(=O)O)[C@@H](O)[C@H](O)[C@H]2O[C@@H]2O[C@H](C(=O)O)[C@@H](O)[C@H](O)[C@H]2O)CC[C@]2(C)[C@H]3C(=O)C=C4[C@@H]5C[C@@](C)(C(=O)O)CC[C@]5(C)CC[C@@]4(C)[C@]3(C)CC[C@@H]12

Kd [2]: 1600 µM
Compound: O=C(O)c1cc(-c2ccc(F)cc2F)ccc1O [DIFLUNISAL]

Kd ([3]; read-out: Kd): 160 µM
Compound: H-ERWIH-OH

Kd [3]: Not Active
Compound: H-GYHYE-OH

inhibition [4]: Active
inhibition [5]: inactive
inhibition [6]: Active
inhibition [7]: inactive
inhibition [8]: 50%
inhibition [9]: inactive
inhibition [10]: inactive
Compound: H-GYHYERWIH-OH

inhibition [4]: Active
inhibition [5]: inactive
Compound: H-HWTLANWCR-OH

inhibition [4]: Active
inhibition [5]: Active
Compound: H-WISNWILMW-OH

inhibition [4]: Active
inhibition [5]: Active
Compound: H-YHICWYGDY-OH
